Assay [1] concerns ABCG2-482-T7. The assay is described as follows: cells. The note with it: 72 h, read-out: IC50 ± SD^†; nM (resistance fold) / ABCG2-482-T7.
The test system of assay [2] is ABCG2-482-G2. The assay is described as follows: cells. The note with it: 72 h, read-out: IC50 ± SD^†; nM (resistance fold) / ABCG2-482-G2.
The test system of assay [3] is ABCG2-482-R2. In words: cells. The note with it: 72 h, read-out: IC50 ± SD^†; nM (resistance fold) / ABCG2-482-R2.
Assay [4] relates to HEK293/pcDNA3.1. In words: cells. Conditions: Homo sapiens, HEK293, 72 h, read-out: IC50 ± SD^†; nM (resistance fold) / HEK293/pcDNA3.1.
Assay [5] has as its system KB-3-1. In words: cells. The note with it: Homo sapiens, KB 3-1, 72 h, read-out: IC50 ± SD^†; nM (resistance fold) / KB-3-1.
For assay [6], the system named is KB-C2. In words: cells. Conditions: Homo sapiens, KB-C2, 72 h, read-out: IC50 ± SD^†; nM (resistance fold) / KB-C2.
In assay [7] the test system is HEK293/pcDNA3.1. The assay is described as follows: cells. The note with it: Homo sapiens, HEK293, 72 h, read-out: IC50 ± SD^†; nM (resistance fold) / HEK293/pcDNA3.1. This is another data set of the same source.
Assay [8] concerns HEK/ABCB1. The assay is described as follows: cells. The note with it: 72 h, read-out: IC50 ± SD^†; nM (resistance fold) / HEK/ABCB1.
For assay [9], the target named is ABCB1 (P-glycoprotein) (Homo sapiens, UniProt P08183). The assay is described as follows: competition of […]-IAAP photoaffinity labeling. The class given is binding.

Where two headings read alike, the source gives them in different places.

Sequence of ABCB1 (P-glycoprotein) (P08183 whole entry): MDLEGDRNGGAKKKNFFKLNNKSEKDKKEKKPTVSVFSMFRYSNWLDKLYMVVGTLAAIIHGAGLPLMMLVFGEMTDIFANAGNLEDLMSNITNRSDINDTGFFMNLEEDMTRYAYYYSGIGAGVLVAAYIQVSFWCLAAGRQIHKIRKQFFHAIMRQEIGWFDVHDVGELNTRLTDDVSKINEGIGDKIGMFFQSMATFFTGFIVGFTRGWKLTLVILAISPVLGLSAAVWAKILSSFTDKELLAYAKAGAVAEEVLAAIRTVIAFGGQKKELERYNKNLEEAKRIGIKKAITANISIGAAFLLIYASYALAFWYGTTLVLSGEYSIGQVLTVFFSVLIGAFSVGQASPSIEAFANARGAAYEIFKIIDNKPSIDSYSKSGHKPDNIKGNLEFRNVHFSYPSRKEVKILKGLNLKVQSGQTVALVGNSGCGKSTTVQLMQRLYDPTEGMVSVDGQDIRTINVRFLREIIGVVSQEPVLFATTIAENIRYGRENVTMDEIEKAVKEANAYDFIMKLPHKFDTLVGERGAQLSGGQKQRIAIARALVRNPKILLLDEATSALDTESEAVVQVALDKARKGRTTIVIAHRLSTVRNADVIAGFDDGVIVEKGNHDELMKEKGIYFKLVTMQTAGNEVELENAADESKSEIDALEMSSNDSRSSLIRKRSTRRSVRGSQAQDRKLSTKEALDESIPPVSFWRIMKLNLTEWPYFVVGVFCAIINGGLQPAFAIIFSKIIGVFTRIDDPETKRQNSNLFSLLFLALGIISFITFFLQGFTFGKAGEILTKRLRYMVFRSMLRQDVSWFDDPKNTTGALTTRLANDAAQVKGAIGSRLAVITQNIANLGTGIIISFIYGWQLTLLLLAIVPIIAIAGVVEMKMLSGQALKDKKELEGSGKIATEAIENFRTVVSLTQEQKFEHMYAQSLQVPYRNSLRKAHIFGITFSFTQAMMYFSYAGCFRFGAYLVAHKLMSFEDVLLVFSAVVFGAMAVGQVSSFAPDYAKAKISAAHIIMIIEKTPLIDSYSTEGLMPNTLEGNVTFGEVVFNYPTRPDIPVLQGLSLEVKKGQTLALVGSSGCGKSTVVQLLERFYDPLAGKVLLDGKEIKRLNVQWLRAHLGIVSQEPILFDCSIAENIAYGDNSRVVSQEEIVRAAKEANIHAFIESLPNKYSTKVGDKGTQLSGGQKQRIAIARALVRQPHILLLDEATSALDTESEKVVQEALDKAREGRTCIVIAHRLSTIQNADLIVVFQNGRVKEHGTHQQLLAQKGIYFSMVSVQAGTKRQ

Usually IC50 stands for the concentration at which inhibition is half-maximal. For the molecule `COc1cccc2c1C(=O)c1c(O)c3c(c(O)c1C2=O)C[C@@](O)(C(=O)CO)C[C@@H]3O[C@H]1C[C@H](N)[C@H](O)[C@H](C)O1` [Doxorubicin], the IC50 in assay [1] was found to be 133 nM; in assay [2], 168 nM; in assay [3] it was 62.1 nM; in [4], 16.6 nM.
On the same counts, the results for `CCc1c2c(nc3ccc(O)cc13)-c1cc3c(c(=O)n1C2)COC(=O)[C@]3(O)CC` [SN-38] are 162 nM, 152 nM, 71.6 nM and 2.1 nM.
Take `CC[C@]1(O)C[C@@H]2CN(CCc3c([nH]c4ccccc34)[C@@](C(=O)OC)(c3cc4c(cc3OC)N(C)[C@H]3[C@@](O)(C(=O)OC)[C@H](OC(C)=O)[C@]5(CC)C=CCN6CC[C@]43[C@@H]65)C2)C1` [Vinblastine]: the IC50 was 0.2 nM in [5] and 34.4 nM in assay [6].
Turning to `CC[C@]1(O)C[C@H]2CN(CCc3c([nH]c4ccccc34)[C@@](C(=O)OC)(c3cc4c(cc3OC)N(C=O)[C@H]3[C@@](O)(C(=O)OC)[C@H](OC(C)=O)[C@]5(CC)C=CCN6CC[C@]43[C@@H]65)C2)C1` [Vincristine], the results for the IC50 in [7] and in assay [8] were 4.1 nM and 1410 nM, respectively.
On to `O=C1c2c(O)ccc(O)c2C(=O)c2c(NCCNCCO)ccc(NCCNCCO)c21` [mitoxantrone], for which the IC50 in assay [1] was 190 nM; in [2] it was 179 nM; in [3] it was 167 nM; in assay [4], 35.7 nM.
Consider `CC(=O)O[C@H]1C(=O)[C@@]2(C)[C@H]([C@H](OC(=O)c3ccccc3)[C@]3(O)C[C@H](OC(=O)[C@H](O)[C@@H](NC(=O)c4ccccc4)c4ccccc4)C(C)=C1C3(C)C)[C@]1(OC(C)=O)CO[C@@H]1C[C@@H]2O` [paclitaxel], for which the IC50 in [5] was 6.5 nM; in assay [6], 4930 nM; in assay [7] it was 28.3 nM; in [8], 8480 nM.
For the molecule `COc1cc2nccc(Oc3ccc(NC(=O)Nc4cc(C)on4)c(Cl)c3)c2cc1OC` [tivozanib], the IC50 in assay [9] turned out to be 2900 nM.

For the origin of these results see article PMC8366683 (Future oncology (London, England), 2013).
